In PubChem BioAssay (NCI):
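Cells were grown in 96-well plates and exposed to each compound for 48 hours at five concentrations; endpoints were interpolated linearly between bracketing concentrations, or set to the highest concentration if not reached. At the GI50, growth is halved. At the TGI there is no net growth.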

How the values were obtained:
Assay in all cases: NCI-60 cell line screen, 48 h
[1] = tested on: 786-0 renal
[2] = tested on: A498 renal
[3] = tested on: A549 NSCLC
[4] = tested on: ACHN renal
[5] = tested on: BT-549 breast
[6] = tested on: CAKI-1 renal
[7] = tested on: CCRF-CEM leukemia
[8] = tested on: COLO 205 colon
[9] = tested on: DU-145 prostate
[10] = tested on: EKVX NSCLC
[11] = tested on: HCC-2998 colon
[12] = tested on: HCT-116 colon
[13] = tested on: HCT-15 colon
[14] = tested on: HL-60(TB) leukemia
[15] = tested on: HOP-62 NSCLC
[16] = tested on: HOP-92 NSCLC
[17] = tested on: HS 578T breast
[18] = tested on: HT29 colon
[19] = tested on: IGROV1 ovarian
[20] = tested on: K-562 leukemia
[21] = tested on: KM12 colon
[22] = tested on: LOX IMVI melanoma
[23] = tested on: M14 melanoma
[24] = tested on: MALME-3M melanoma
[25] = tested on: MCF7 breast
[26] = tested on: MDA-MB-231 breast
[27] = tested on: MDA-MB-435
[28] = tested on: MOLT-4 leukemia
[29] = tested on: NCI-H226 lung
[30] = tested on: NCI-H23 lung
[31] = tested on: NCI-H460 lung
[32] = tested on: NCI-H522 lung
[33] = tested on: NCI/ADR-RES ovarian
[34] = tested on: OVCAR-3 ovarian
[35] = tested on: OVCAR-4 ovarian
[36] = tested on: OVCAR-5 ovarian
[37] = tested on: OVCAR-8 ovarian
[38] = tested on: PC-3 prostate
[39] = tested on: RPMI-8226 leukemia
[40] = tested on: RXF 393 renal
[41] = tested on: SF-268 CNS
[42] = tested on: SF-295 CNS
[43] = tested on: SF-539 CNS
[44] = tested on: SK-MEL-2 melanoma
[45] = tested on: SK-MEL-28 melanoma
[46] = tested on: SK-MEL-5 melanoma
[47] = tested on: SK-OV-3 ovarian
[48] = tested on: SN12C renal
[49] = tested on: SNB-19 CNS
[50] = tested on: SNB-75 CNS
[51] = tested on: SR leukemia
[52] = tested on: SW-620 colon
[53] = tested on: T-47D breast
[54] = tested on: TK-10 renal
[55] = tested on: U251 CNS
[56] = tested on: UACC-257 melanoma
[57] = tested on: UACC-62 melanoma
[58] = tested on: UO-31 renal
[59] = tested on: MDA-N

## CCCCCOc1ccc(/C=N/Nc2cc(C)nc3ccc(Br)cc23)cc1
[1]
  GI50: 1.8 µM
  TGI: 3.43 µM
[2]
  GI50: 1.83 µM
  TGI: 3.32 µM
[3]
  GI50: 1.9 µM
  TGI: 3.69 µM
[4]
  GI50: 1.77 µM
  TGI: 3.17 µM
[5]
  GI50: 1.77 µM
  TGI: 3.43 µM
[6]
  GI50: 1.63 µM
  TGI: 2.99 µM
[7]
  GI50: 1.54 µM
  TGI: 3.51 µM
[8]
  GI50: 1.96 µM
  TGI: 3.72 µM
[9]
  GI50: 1.81 µM
  TGI: 3.25 µM
[10]
  GI50: 1.63 µM
  TGI: 3.11 µM
[11]
  GI50: 2.07 µM
  TGI: 3.8 µM
[12]
  GI50: 1.78 µM
  TGI: 3.36 µM
[13]
  GI50: 1.57 µM
  TGI: 3.13 µM
[14]
  GI50: 1.91 µM
  TGI: 3.78 µM
[15]
  GI50: 1.73 µM
  TGI: 3.37 µM
[16]
  GI50: 1.36 µM
  TGI: 2.88 µM
[17]
  GI50: 2.33 µM
  TGI: 5.64 µM
[18]
  GI50: 1.94 µM
  TGI: 4.24 µM
[19]
  GI50: 1.72 µM
  TGI: 3.37 µM
[20]
  GI50: 1.24 µM
  TGI: 2.83 µM
[21]
  GI50: 1.74 µM
  TGI: 3.19 µM
[22]
  GI50: 1.86 µM
  TGI: 3.64 µM
[23]
  GI50: 1.88 µM
  TGI: 3.53 µM
[24]
  GI50: 1.88 µM
  TGI: 3.46 µM
[25]
  GI50: 1.71 µM
  TGI: 3.68 µM
[26]
  GI50: 1.77 µM
  TGI: 3.41 µM
[27]
  GI50: 1.76 µM
  TGI: 3.18 µM
[28]
  GI50: 1.73 µM
  TGI: 3.58 µM
[29]
  GI50: 1.85 µM
  TGI: 4.32 µM
[30]
  GI50: 1.85 µM
  TGI: 3.82 µM
[31]
  GI50: 1.94 µM
  TGI: 3.7 µM
[32]
  GI50: 2.06 µM
  TGI: 4.71 µM
[33]
  GI50: 1.83 µM
  TGI: 4.19 µM
[34]
  GI50: 1.92 µM
  TGI: 3.37 µM
[35]
  GI50: 1.76 µM
  TGI: 3.27 µM
[36]
  GI50: 1.83 µM
  TGI: 3.28 µM
[37]
  GI50: 2.13 µM
  TGI: 4.73 µM
[38]
  GI50: 1.55 µM
  TGI: 3.02 µM
[39]
  GI50: 1.91 µM
  TGI: 4.17 µM
[40]
  GI50: 1.67 µM
  TGI: 3.19 µM
[41]
  GI50: 1.97 µM
  TGI: 3.73 µM
[42]
  GI50: 1.81 µM
  TGI: 3.5 µM
[43]
  GI50: 1.76 µM
  TGI: 3.23 µM
[44]
  GI50: 1.98 µM
  TGI: 3.91 µM
[45]
  GI50: 1.65 µM
  TGI: 3.1 µM
[46]
  GI50: 1.74 µM
  TGI: 3.16 µM
[47]
  GI50: 1.75 µM
  TGI: 3.18 µM
[48]
  GI50: 1.72 µM
  TGI: 3.27 µM
[49]
  GI50: 1.96 µM
  TGI: 3.71 µM
[50]
  GI50: 1.77 µM
  TGI: 3.39 µM
[51]
  GI50: 0.448 µM
  TGI: 2.15 µM
[52]
  GI50: 1.92 µM
  TGI: 3.63 µM
[53]
  GI50: 1.81 µM
  TGI: 3.89 µM
[54]
  GI50: 1.87 µM
  TGI: 3.42 µM
[55]
  GI50: 1.82 µM
  TGI: 3.39 µM
[56]
  GI50: 1.88 µM
  TGI: 3.6 µM
[57]
  GI50: 1.66 µM
  TGI: 3.13 µM
[58]
  GI50: 1.57 µM
  TGI: 3 µM

## c1ccc(NN=C(c2ccccn2)c2ccccn2)nc1
[1]
  TGI: > 100 µM
[2]
  TGI: 7.11 µM
[3]
  TGI: > 21 µM
[4]
  TGI: > 100 µM
[5]
  TGI: > 100 µM
[6]
  TGI: > 100 µM
[8]
  TGI: > 100 µM
[9]
  TGI: > 100 µM
[10]
  TGI: > 100 µM
[11]
  TGI: > 100 µM
[12]
  TGI: > 100 µM
[13]
  TGI: > 100 µM
[16]
  TGI: > 100 µM
[17]
  TGI: > 100 µM
[18]
  TGI: > 100 µM
[19]
  TGI: > 100 µM
[20]
  TGI: > 100 µM
[21]
  TGI: > 100 µM
[22]
  TGI: > 100 µM
[24]
  TGI: 26.1 µM
[25]
  TGI: > 100 µM
[26]
  TGI: > 100 µM
[27]
  TGI: > 100 µM
[59]
  TGI: > 100 µM
[30]
  TGI: > 100 µM
[31]
  TGI: > 100 µM
[32]
  TGI: > 100 µM
[33]
  TGI: 5.05 µM
[34]
  TGI: > 100 µM
[35]
  TGI: > 100 µM
[36]
  TGI: > 100 µM
[37]
  TGI: > 100 µM
[38]
  TGI: > 100 µM
[40]
  TGI: > 100 µM
[41]
  TGI: > 100 µM
[42]
  TGI: > 100 µM
[43]
  TGI: > 47.5 µM
[44]
  TGI: > 100 µM
[45]
  TGI: > 100 µM
[46]
  TGI: > 100 µM
[47]
  TGI: > 100 µM
[48]
  TGI: > 100 µM
[49]
  TGI: > 100 µM
[50]
  TGI: > 100 µM
[52]
  TGI: > 100 µM
[54]
  TGI: > 100 µM
[55]
  TGI: > 61.9 µM
[56]
  TGI: > 100 µM
[58]
  TGI: 0.513 µM
